# Test results: US20250186437A1, “CARBOLINE COMPOUNDS AND USE THEREOF” (PTC Therapeutics, Inc., priority 2021, published 2025)
# Counter-ions that a name gives are not always drawn.
# Tests used:
# MOLM-13 cells [1] = test: MOLM-13 Cell Proliferation Assay (indicator of DHODH inhibition); type: cell-based; conditions: 72 Hours of culture, CellTiter-Glo, no uridine
# Method in brief: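 Proliferation readout via CellTiter-Glo luminescence after 72 h compound treatment (37 °C, 5% CO2, 0.5% DMSO) of MOLM-13 cells seeded at 10^4 per well in RPMI 1640/10% FBS, used as a DHODH-inhibition indicator since these cells rely on de novo pyrimidine synthesis.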
# MOLM-13 cells [2] = test: MOLM-13 Uridine Rescue Assay; type: cell-based; conditions: Homo sapiens; MOLM-13 cell proliferation with 100 μM Uridine added, 72 Hours of culture
# Experimental: The following assay was conducted to measure proliferation of MOLM-13 cells in the presence of each compound studied. This assay was included as an indicator of DHODH inhibition, as growth of MOLM-13 cells is known to depend on synthesis of pyrimidines using the de novo pathway, which can be blocked by inhibition of DHODH. • 1. MOLM-13 cells were cultured in RPMI 1640 medium+10% Fetal Bovine Serum (FBS). Only low passage cells (<20) were used for the compound tests • 2. On day 1, Log-phase growing Molm-13 Cells were counted and diluted to 10^5 cells/mL in RPMI 1640 medium+10% FBS • 3. 100 μL of diluted MOLM-13 cells in 96 well white plates were seeded, for a final density of 10^4 cells/well. • 4. 0.5 μL of pre-diluted 200× compounds or DMSO control was added to each well. The final DMSO concentration was 0.5%. • 5. After 72 Hours of culture at 37° C., 5% CO2, the plates were taken out and cooled to RT, then 50 μL CellTiter-Glo® (Promega) was added, and the composition was mixed at RT for 10 minutes. • 6. The plates were then read by ViewLux (Speed-fast, Gain-High, Bining-1X, 5 seconds).
# Several compounds were also tested in a Uridine rescue assay. In the Uridine rescue assay, using the procedure in Example 1 above, an additional plate of MOLM-13 cell cultures was prepared, to which 100 μM of Uridine was added in step 3 of the process.
IC50 (MOLM-13 cells [1]; Homo sapiens),IC50 (MOLM-13 cells [2]),IC50 (MOLM-13 cells [1]),SMILES
0.6 nM,9300 nM,,"FC(F)(F)c1cc(C(F)(F)F)nc(N2CCc3c([nH]c4ccc(Cl)cc34)C2c2ccc(N3CCOCC3)nc2)n1 (stereo not shown) [Compound 357, 2-[4,6-bis(trifluoromethyl)pyrimidin-2-yl]-6-chloro-1-[6-(morpholin-4-yl)pyridin-3-yl]-2,3,4,9-tetrahydro-1H-pyrido[3,4-b]indole formate (1:1)]"
1 nM,15200 nM,,"Cc1ccc(C2c3[nH]c4ccc(Cl)cc4c3CCN2c2nc(C(F)(F)F)cc(C(F)(F)F)n2)c(F)c1F (stereo not shown) [Compound 340, 2-[4,6-bis(trifluoromethyl)pyrimidin-2-yl]-6-chloro-1-(2,3-difluoro-4-methylphenyl)-2,3,4,9-tetrahydro-1H-pyrido[3,4-b]indole]"
1.3 nM,13600 nM,,"FC(F)(F)c1ncnc(N2CCc3c([nH]c4ccc(Cl)cc34)[C@@H]2c2ccc(N3CCOCC3)nc2)n1 [Compound 462, (1S)-6-chloro-1-[6-(morpholin-4-yl)pyridin-3-yl]-2-[4-(trifluoromethyl)-1,3,5-triazin-2-yl]-2,3,4,9-tetrahydro-1H-pyrido[3,4-b]indole]"
0.6 nM,14900 nM,,"Fc1cc2[nH]c3c(c2cc1Cl)CCN(c1nc(C(F)(F)F)cc(C(F)(F)F)n1)C3c1cccc(F)c1F (stereo not shown) [Compound 157, 2-[4,6-bis(trifluoromethyl)pyrimidin-2-yl]-6-chloro-1-(2,3-difluorophenyl)-7-fluoro-2,3,4,9-tetrahydro-1H-pyrido[3,4-b]indole]"
3.7 nM,22700 nM,,"Cc1ccc2[nH]c3c(c2c1)CCN(c1nccc(C(F)(F)F)n1)C3c1ccc(C)c(F)c1F (stereo not shown) [Compound 271, 1-(2,3-difluoro-4-methylphenyl)-6-methyl-2-[4-(trifluoromethyl)pyrimidin-2-yl]-2,3,4,9-tetrahydro-1H-pyrido[3,4-b]indole]"
1.6 nM,8840 nM,,"Cc1cc(C(F)(F)F)nc(N2CCc3c([nH]c4ccc(Cl)cc34)C2c2cnc(N3CCOCC3)nc2)n1 (stereo not shown) [Compound 374, 6-chloro-2-[4-methyl-6-(trifluoromethyl)pyrimidin-2-yl]-1-[2-(morpholin-4-yl)pyrimidin-5-yl]-2,3,4,9-tetrahydro-1H-pyrido[3,4-b]indole]"
0.5 nM,8550 nM,,"Cc1ccc(C2c3[nH]c4c(N)cc(Cl)cc4c3CCN2c2nccc(C(F)(F)F)n2)c(F)c1F (stereo not shown) [Compound 248, 6-chloro-1-(2,3-difluoro-4-methylphenyl)-2-[4-(trifluoromethyl)pyrimidin-2-yl]-2,3,4,9-tetrahydro-1H-pyrido[3,4-b]indol-8-amine]"
1.3 nM,1160 nM,,"FC(F)(F)c1ncnc(N2CCc3c([nH]c4ccc(Cl)cc34)[C@@H]2c2cnc(N3CCOCC3)nc2)n1 [Compound 460, (1S)-6-chloro-1-[2-(morpholin-4-yl)pyrimidin-5-yl]-2-[4-(trifluoromethyl)-1,3,5-triazin-2-yl]-2,3,4,9-tetrahydro-1H-pyrido[3,4-b]indole]"
20.8 nM,12400 nM,,"Cc1ncnc(N2CCc3c([nH]c4ccc(Cl)cc34)C2c2cnc(N3CCOCC3)nc2)n1 (stereo not shown) [Compound 294, 6-chloro-2-(4-methyl-1,3,5-triazin-2-yl)-1-[2-(morpholin-4-yl)pyrimidin-5-yl]-2,3,4,9-tetrahydro-1H-pyrido[3,4-b]indole]"
7.9 nM,7680 nM,,"Cc1cc(N)c2[nH]c3c(c2c1)CCN(c1nccc(C(F)(F)F)n1)C3c1ccc(C)c(F)c1F (stereo not shown) [Compound 272, 1-(2,3-difluoro-4-methylphenyl)-6-methyl-2-[4-(trifluoromethyl)pyrimidin-2-yl]-2,3,4,9-tetrahydro-1H-pyrido[3,4-b]indol-8-amine]"
0.7 nM,4290 nM,,"CN1CCN(c2ncc(C3c4[nH]c5ccc(Cl)cc5c4CCN3c3nc(C(F)(F)F)cc(C(F)(F)F)n3)cn2)CC1 (stereo not shown) [Compound 381, 2-[4,6-bis(trifluoromethyl)pyrimidin-2-yl]-6-chloro-1-[2-(4-methylpiperazin-1-yl)pyrimidin-5-yl]-2,3,4,9-tetrahydro-1H-pyrido[3,4-b]indole]"
3.2 nM,10300 nM,,"Cc1ccc(C2c3[nH]c4ccc(Cl)cc4c3CCN2c2nccc(C#N)n2)c(F)c1F (stereo not shown) [Compound 363, 2-[6-chloro-1-(2,3-difluoro-4-methylphenyl)-1,3,4,9-tetrahydro-2H-pyrido[3,4-b]indol-2-yl]pyrimidine-4-carbonitrile]"
2.2 nM,6910 nM,,"Cc1ccc(C2c3[nH]c4ccc(Cl)cc4c3CCN2c2nccc(C(F)(F)F)n2)c(F)c1 (stereo not shown) [Compound 254, 6-chloro-1-(2-fluoro-4-methylphenyl)-2-[4-(trifluoromethyl)pyrimidin-2-yl]-2,3,4,9-tetrahydro-1H-pyrido[3,4-b]indole]"
0.8 nM,12300 nM,,"FC(F)(F)c1cc(C(F)(F)F)nc(N2CCc3c([nH]c4ccc(Cl)cc34)C2c2cnc(N3CCOCC3)nc2)n1 (stereo not shown) [Compound 358, 2-[4,6-bis(trifluoromethyl)pyrimidin-2-yl]-6-chloro-1-[2-(morpholin-4-yl)pyrimidin-5-yl]-2,3,4,9-tetrahydro-1H-pyrido[3,4-b]indole formate (1:1)]"
2.2 nM,15600 nM,,"N#Cc1ccc(C2c3[nH]c4ccc(Cl)cc4c3CCN2c2nccc(C(F)(F)F)n2)c(F)c1 (stereo not shown) [Compound 255, 4-{6-chloro-2-[4-(trifluoromethyl)pyrimidin-2-yl]-2,3,4,9-tetrahydro-1H-pyrido[3,4-b]indol-1-yl}-3-fluorobenzonitrile]"
11.7 nM,9810 nM,,"Cc1nc(C)nc(N2CCc3c([nH]c4cc(N)c(Cl)cc34)C2c2cnc(N3CCOCC3)nc2)n1 (stereo not shown) [Compound 320, 6-chloro-2-(4,6-dimethyl-1,3,5-triazin-2-yl)-1-[2-(morpholin-4-yl)pyrimidin-5-yl]-2,3,4,9-tetrahydro-1H-pyrido[3,4-b]indol-7-amine]"
8.9 nM,6410 nM,,"Cc1ccnc(N2CCc3c([nH]c4ccc(Cl)cc34)C2c2ccc(N3CCOCC3)nc2)n1 (stereo not shown) [Compound 352, 6-chloro-2-(4-methylpyrimidin-2-yl)-1-[6-(morpholin-4-yl)pyridin-3-yl]-2,3,4,9-tetrahydro-1H-pyrido[3,4-b]indole]"
3.8 nM,10700 nM,,"FC(F)(F)c1ccnc(N2CCc3c([nH]c4ccc(-n5nccn5)cc34)C2c2ccc(N3CCOCC3)nc2)n1 (stereo not shown) [Compound 316, 1-[6-(morpholin-4-yl)pyridin-3-yl]-6-(2H-1,2,3-triazol-2-yl)-2-[4-(trifluoromethyl)pyrimidin-2-yl]-2,3,4,9-tetrahydro-1H-pyrido[3,4-b]indole]"
2.2 nM,,,"Cc1ccc(C2c3[nH]c4cc(F)c(Cl)cc4c3CCN2c2nc(C)c(C)c(C)n2)c(F)c1F (stereo not shown) [Compound 169, 6-chloro-1-(2,3-difluoro-4-methylphenyl)-7-fluoro-2-(4,5,6-trimethylpyrimidin-2-yl)-2,3,4,9-tetrahydro-1H-pyrido[3,4-b]indole]"
,,8.1 nM,"COC(=O)c1ncc([C@H]2c3[nH]c4ccc(Cl)cc4c3CCN2c2nc(C(F)(F)F)nc(C(F)(F)F)n2)cn1 [Compound 532, methyl 5-{(1S)-2-[4,6-bis(trifluoromethyl)-1,3,5-triazin-2-yl]-6-chloro-2,3,4,9-tetrahydro-1H-pyrido[3,4-b]indol-1-yl} pyrimidine-2-carboxylate]"
1.1 nM,,,"Cc1ccc([C@H]2c3[nH]c4ccc(Cl)cc4c3CCN2c2nc(N3CCN(C)CC3)nc(C(F)(F)F)n2)c(F)c1F [Compound 477, (1S)-6-chloro-1-(2,3-difluoro-4-methylphenyl)-2-[4-(4-methylpiperazin-1-yl)-6-(trifluoromethyl)-1,3,5-triazin-2-yl]-2,3,4,9-tetrahydro-1H-pyrido[3,4-b]indole]"
3.1 nM,,,"Cc1ccc([C@H]2c3[nH]c4ccc(Cl)cc4c3CCN2c2ncc(F)c(C#N)n2)cc1 [Compound 392, 2-[(1S)-6-chloro-1-(4-methylphenyl)-1,3,4,9-tetrahydro-2H-pyrido[3,4-b]indol-2-yl]-5-fluoropyrimidine-4-carbonitrile]"
3.6 nM,,,"O=[N+]([O-])c1ccc2[nH]c3c(c2c1)CCN(c1nccc(C(F)(F)F)n1)C3c1cnc(N2CCOCC2)nc1 (stereo not shown) [Compound 323, 1-[2-(morpholin-4-yl)pyrimidin-5-yl]-6-nitro-2-[4-(trifluoromethyl)pyrimidin-2-yl]-2,3,4,9-tetrahydro-1H-pyrido[3,4-b]indole]"

SMILES,IC50 (MOLM-13 cells [1]; Homo sapiens),IC50 (MOLM-13 cells [2]),IC50 (MOLM-13 cells [1])
"Cc1ccc(C2c3[nH]c4c(O)cc(Cl)cc4c3CCN2c2nccc(C(F)(F)F)n2)c(F)c1F (stereo not shown) [Compound 220, 6-chloro-1-(2,3-difluoro-4-methylphenyl)-2-[4-(trifluoromethyl)pyrimidin-2-yl]-2,3,4,9-tetrahydro-1H-pyrido[3,4-b]indol-8-ol]",1.1 nM,6700 nM,
